What all share (conditions): at 10 µM
The subject of assay [1] is T1, Receptor-type tyrosine-protein kinase FLT3 (Homo sapiens), P36888 [D835H].
T1 sequence (whole entry): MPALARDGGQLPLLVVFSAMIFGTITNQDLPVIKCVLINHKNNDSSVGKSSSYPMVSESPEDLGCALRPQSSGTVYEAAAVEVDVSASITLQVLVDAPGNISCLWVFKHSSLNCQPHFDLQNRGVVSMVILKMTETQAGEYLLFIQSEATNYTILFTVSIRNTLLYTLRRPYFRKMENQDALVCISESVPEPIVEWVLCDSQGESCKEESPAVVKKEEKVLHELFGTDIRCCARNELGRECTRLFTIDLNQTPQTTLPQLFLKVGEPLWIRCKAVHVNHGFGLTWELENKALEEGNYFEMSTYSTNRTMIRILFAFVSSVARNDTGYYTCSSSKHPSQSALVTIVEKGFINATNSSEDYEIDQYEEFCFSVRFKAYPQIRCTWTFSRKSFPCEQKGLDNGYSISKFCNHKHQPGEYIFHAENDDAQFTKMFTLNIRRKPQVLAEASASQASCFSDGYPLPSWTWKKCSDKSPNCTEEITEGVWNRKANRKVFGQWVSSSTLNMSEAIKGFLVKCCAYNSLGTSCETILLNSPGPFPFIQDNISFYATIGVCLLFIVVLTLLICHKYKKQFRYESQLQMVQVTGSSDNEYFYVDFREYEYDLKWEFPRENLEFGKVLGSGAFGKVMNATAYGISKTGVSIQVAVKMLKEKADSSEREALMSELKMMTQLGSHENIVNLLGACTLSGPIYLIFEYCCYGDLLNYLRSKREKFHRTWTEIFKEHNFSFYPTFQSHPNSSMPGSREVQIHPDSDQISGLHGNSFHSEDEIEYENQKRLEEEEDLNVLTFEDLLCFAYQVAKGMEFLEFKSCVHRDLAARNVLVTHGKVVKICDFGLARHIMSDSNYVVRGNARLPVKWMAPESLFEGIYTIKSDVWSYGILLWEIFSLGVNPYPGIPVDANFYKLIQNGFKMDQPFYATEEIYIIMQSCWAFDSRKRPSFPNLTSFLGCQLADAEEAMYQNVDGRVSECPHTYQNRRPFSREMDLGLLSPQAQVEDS
Description: (§1) Selectivity interaction (KinomeScan (DiscoverX)) EUB0000092b FLT3.

Assay [2] relates to T2, Receptor-type tyrosine-protein kinase FLT3 (Homo sapiens), P36888 [N841I].
T2 sequence (whole entry): T1 sequence (whole entry) with H835D, N841I
Described as §1.

Assay [3] relates to T3, Receptor-type tyrosine-protein kinase FLT3 (Homo sapiens), P36888 [K663Q].
T3 sequence (whole entry): T1 sequence (whole entry) with K663Q, H835D
Described as §1.

From ChEMBL document CHEMBL5465560, “Selectivity Literature for EUbOPEN Chemogenomic Library” (2024) come the findings set out here.

Changes are numbered by the printed parent chain.

On to `CCC(=O)N1CCN(c2ccc(-n3c(=O)ccc4cnc5ccc(-c6cnc7ccccc7c6)cc5c43)cc2C(F)(F)F)CC1`, for which the values for the % of control in assay [1], in assay [2] and in assay [3] were 18%, 8.8% and 23%, respectively.
